Experimental data from US11834417B2, “Compositions for the treatment of hypertension and/or fibrosis” (Vectus Biosystems Limited, priority 2016, dated 2023).
Blank lines part the entries; values can stand above or below the molecule they belong to.

Columns and labels:
[1] = system: spontaneous hypertensive rats (SHR); experiment: Myocardial fibrosis quantitation (Masson's Trichrome) in SHR on a 2.2% salt diet; assay type: in vivo, rat; settings: 4 weeks
Text: (§1) Fourteen week old spontaneous hypertensive rats (SHR; Australian Animal Resources Centre, WA) on a 2.2% salt diet (Glenn Forrest Stockfeeders, WA) were randomized to the following treatment groups: 14-week control, or VB0002 infusion (20 pmol/kg/min in 20% DMSO) or vehicle control infusion (20% DMSO) for 4 weeks. VB0002 and vehicle control infusions were via Alzet osmotic minipump, which was inserted under general anaesthesia (Isoflurane 3% in oxygen) at 14 weeks.
Fourteen week old spontaneous hypertensive rats on a 2.2% salt diet were also randomized to the following treatment groups: 14-week control, or VB0003 administration (10, 100 or 500 pmol/kg/min in 5% ethanol), VB0005 administration (100 pmol/kg/min in 5% ethanol) or drinking solution (5% ethanol) administration for 4 weeks.
(§2) The 14-week control group were anaesthetized using isoflurane (3%) delivered in oxygen, then had blood sampled and hearts and kidneys harvested for quantitation of fibrosis. The remaining groups were weighed and had blood pressure measured by tail cuff plethysmography (ADI Instruments) twice weekly for a further 4 weeks. After 4 weeks treatment, rats were anaesthetized and samples collected as per the 14-week control group. Results are mean±sem for n=5 rats per group.
For quantitation of fibrosis, tissue slices ≤3 mm thick were fixed in 10% buffered formalin for 24 hours, processed and embedded in paraffin. Three μm transverse sections were stained using Masson's Trichrome. A minimum of 20 random fields at 40× magnification from transverse sections ([…]) were digitized. The degree of fibrosis was determined as a percent of field area of each digitized image using Image-Pro Plus V.5 (Media Cybernetics, Bethesda, Md., USA), and then averaged to determine the level of fibrosis for each rat.

[2] = system: spontaneous hypertensive rats (SHR); experiment: Systolic blood pressure by tail cuff plethysmography in SHR on a 2.2% salt diet; assay type: in vivo, rat
Text: as §1, with “14 weeks. […]” for “14 weeks.”
as §2

[3] = 100 pmol/kg/min in drinking solution (5% ethanol), compared to 14 week controls
[4] = 100 pmol/kg/min in drinking solution (5% ethanol), compared to 18 week controls
[5] = in 5% ethanol in the drinking solution for 4 weeks (FIG. 9:), compared to 18 week controls (p<0.0005)

Structure (SMILES): NC(=O)CC[C@H]1CN(c2ccccc2)CCN1c1cccc(O)c1 [VB0005, (S)-3-[1-(3-Hydroxy)phenyl-4-phenylpiperazin-2-yl]propanamide]
- Myocardial fibrosis [1, 3]: reduced
- Myocardial fibrosis [1, 4]: reduced
- Systolic blood pressure [2, 5]: reduced

- melting point: 84 to 88 °C
Structure (SMILES): CC(O)Cc1c(-c2ccccc2)ncn1Cc1cccc(O)c1.Cl (centres unmarked)

Structure (SMILES): CC(O)Cc1c(-c2ccccc2)ncn1Cc1cccc(O)c1 (centres unmarked) [VB0003, 3-[5-(2-hydroxypropyl)-4-phenyl-imidazol-1-ylmethyl]-phenol]
- Myocardial fibrosis ([1]; 10 pmol/kg/min in drinking solution (5% ethanol), compared to 18 week controls): reduced
- Myocardial fibrosis [1, 3]: reduced
- Myocardial fibrosis [1, 4]: reduced
- Myocardial fibrosis ([1]; 500 pmol/kg/min in drinking solution (5% ethanol), compared to 14 week controls): reduced
- Myocardial fibrosis ([1]; 500 pmol/kg/min in drinking solution (5% ethanol), compared to 18 week controls): reduced
- Systolic blood pressure [2, 5]: reduced

- melting point: 249 °C (dec.)
Structure (SMILES): NC(=O)Cc1c(Cc2ccccc2)ncn1Cc1cccc(O)c1 [VB0002, 2-[4-Benzyl-1-(3-hydroxybenzyl)-1H-imidazol-5-yl]acetamide]
- Myocardial fibrosis ([1]; 20 pmol/kg/min infusion via osmotic minipump, compared to 14 week controls (FIG. 10)): reduced
- Myocardial fibrosis ([1]; 20 pmol/kg/min infusion via osmotic minipump, compared to 18 week controls (FIG. 10)): reduced
- Systolic blood pressure ([2]; in 20% DMSO intravenously via osmotic minipump for 4 weeks, compared to 18 week controls (FIG. 8, p<0.005)): reduced
